Results from patent US20250340569A1, “INHIBITORS OF KIF18A AND USES THEREOF” (Insilico Medicine IP Limited, priority 2023, published 2025).

What was measured:
Kif18A = molecular target: T1, Kif18A (Homo sapiens, UniProt Q8NI77); assay: KIF18A assay (ADP Glo); conditions: biochemical assay, ADP Glo luminescence
T1 sequence (Q8NI77 1-898): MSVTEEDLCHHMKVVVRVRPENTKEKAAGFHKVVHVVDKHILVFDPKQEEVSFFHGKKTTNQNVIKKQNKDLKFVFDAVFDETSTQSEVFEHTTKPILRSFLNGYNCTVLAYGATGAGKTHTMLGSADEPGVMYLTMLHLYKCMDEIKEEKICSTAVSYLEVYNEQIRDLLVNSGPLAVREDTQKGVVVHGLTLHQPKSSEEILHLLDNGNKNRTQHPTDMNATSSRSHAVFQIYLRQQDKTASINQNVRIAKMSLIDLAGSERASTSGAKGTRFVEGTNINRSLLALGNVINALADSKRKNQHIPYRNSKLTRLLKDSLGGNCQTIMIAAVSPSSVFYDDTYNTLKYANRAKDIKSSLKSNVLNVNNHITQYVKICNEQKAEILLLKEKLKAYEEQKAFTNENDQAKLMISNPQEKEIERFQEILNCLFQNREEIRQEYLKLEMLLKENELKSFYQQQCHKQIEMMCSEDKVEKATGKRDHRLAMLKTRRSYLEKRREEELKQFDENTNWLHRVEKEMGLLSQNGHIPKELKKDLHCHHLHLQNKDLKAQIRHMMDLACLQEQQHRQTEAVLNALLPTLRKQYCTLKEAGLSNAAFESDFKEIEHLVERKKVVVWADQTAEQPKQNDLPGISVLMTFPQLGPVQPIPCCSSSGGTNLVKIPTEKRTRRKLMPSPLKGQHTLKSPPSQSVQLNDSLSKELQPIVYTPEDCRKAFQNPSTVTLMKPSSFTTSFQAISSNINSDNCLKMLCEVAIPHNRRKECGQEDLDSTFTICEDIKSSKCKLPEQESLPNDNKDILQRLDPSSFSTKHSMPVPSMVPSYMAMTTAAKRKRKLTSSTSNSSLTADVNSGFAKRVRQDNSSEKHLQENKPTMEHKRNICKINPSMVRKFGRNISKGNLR
Procedure: The KIF18A assay was performed as follows:
1.1. Prepared 1× Kinase Buffer
• a) Added 40 μL test compound to 384-well dilution plate • b) Diluted compound 1:3 in succession in DMSO for each column for 10 pts • c) Transferred 0.1 μL diluted compound solution to 384 assay plate using Echo, each column containing 2 replicates • d) Added 5 μL enzyme working solution to 384-well assay plate, centrifuge 1000 RPM for 1 min e) Incubated at 25° C. for 15 min • f) Added 5 μL ATP working solution to initiate reaction • g) Incubated at 25° C. for 60 min • h) Added 10 μL ADP Glo reagent, centrifuge 1000 RPM for 1 min • i) Incubated at 25° C. for 60 min • j) Added 20 μL kinase detection reagent, centrifuge 1000 RPM for 1 min • k) Incubated at 25° C. for 60 min • l) Read Luminescence Signal on Envision 2104 plate reader.
1.3. Data Analysis—Calculated IC50 and Plot Dose-Response Curve of Compounds:
Calculated IC50 by fitting % Inhibition values and log of compound concentrations to nonlinear regression (dose response−variable slope) with GraphPad 6.0.
[formula] • X: log of inhibitor concentration; Y: % Inhibition

OVCAR-3 = assay: OVCAR3 CTG assay; type: cell-based; conditions: Homo sapiens, OVCAR-3, 144 h; CellTiter-Glo, 6 days incubation
Summary of the method: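 OVCAR-3 cells plated overnight, then exposed to test compounds for 6 days at 37 °C, 5% CO2; 2 mM DMSO working stock diluted 200-fold overall, staurosporine as control. Viability read by CellTiter-Glo luminescence after 10 min lysis and 10 min room-temperature stabilisation.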

Row | SMILES | IC50 (Kif18A) [nM] | IC50 (OVCAR-3) [nM]
1 | CC1CCCC2(C(F)(F)F)CCN(CC2)c2cc(NS(=O)(=O)CCO)ncc2C(=O)Nc2cccc(n2)NC1 (single isomer, unassigned) [EX100-B] | < 10 | < 10
2 | Cc1cc2nc(n1)OCCCOCC1(C)CCN(CC1)c1cc(NS(=O)(=O)CCO)ccc1C(=O)N2 [EX05] | < 10 | 10 to 100
3 | CN1CCCOCC2(C(F)(F)F)CCN(CC2)c2nc(NS(=O)(=O)CCO)ccc2C(=O)Nc2cccc1n2 [EX72] | < 10 | 100 to 1000
4 | CC12CCN(CC1)c1cc(NS(C)(=O)=O)ccc1C(=O)Nc1cccc(n1)OCCCOC2 [EX08] | < 10 | 100 to 1000
5 | [2H]C([2H])([2H])N1CCCOCC2(C(F)(F)F)CCN(CC2)c2cc(NS(=O)(=O)CCO)ccc2C(=O)Nc2cc(C)cc1n2 [EX67] | 10 to 100 | 100 to 1000
6 | Cc1cc2nc(n1)NCCCCCC1(C)CCN(CC1)c1cc(NS(=O)(=O)CCO)ccc1C(=O)N2 [EX34] | < 10 | < 10
7 | CN1CCOCC2(C)CCN(CC2)c2cc(NS(=O)(=O)CCO)ccc2C(=O)Nc2cccc(n2)C1=O [EX21] | 100 to 1000 | 100 to 1000
8 | Cc1cc2nc(n1)N1CCOC(COCC3(C(F)(F)F)CCN(CC3)c3cc(NS(=O)(=O)CCO)c(F)cc3C(=O)N2)C1 (stereo not shown) [EX112] | < 10 | < 10
9 | CC12CCN(CC1)c1cc(NS(=O)(=O)CCO)ccc1C(=O)Nc1cccc(n1)OCCOC2 [EX01] | 10 to 100 | 100 to 1000
10 | Cc1cc2nc(n1)N(C)CCCOCC1(C(F)(F)F)CCN(CC1)c1cc(NS(=O)(=O)CCO)ccc1C(=O)N2 [EX27] | 10 to 100 | 100 to 1000
11 | CN1CCCOCC2(C(F)(F)F)CCN(CC2)c2cc(NS(=O)(=O)CCO)ccc2C(=O)Nc2ccc(C#N)c1n2 [EX73] | 10 to 100 | 10 to 100

More lines, now with the values ahead:

Row | IC50 (Kif18A) [nM] | IC50 (OVCAR-3) [nM] | SMILES
12 | 10 to 100 | 100 to 1000 | Cc1cc2nc(n1)N(C)CCCOCC1(C)CCN(CC1)c1cc(S(=O)(=O)NC(C)(C)C)ccc1C(=O)N2 [EX15]
13 | < 10 | 10 to 100 | Cc1cc2nc(n1)NCCCCC1(C)CCN(CC1)c1cc(NS(=O)(=O)CCO)ccc1C(=O)N2 [EX37]
14 | 10 to 100 | 100 to 1000 | Cc1cc2nc(n1)N(C)CCOCCC1(C)CCN(CC1)c1cc(NS(=O)(=O)CCO)ccc1C(=O)N2 [EX09]
15 | 100 to 1000 | 1000 to 10000 | Cc1cc2nc(n1)NCCOC[C@@H]1CCC[C@H](COc3cc(NS(=O)(=O)CCO)ccc3C(=O)N2)C1 (relative stereo) [EX106]
16 | < 10 | < 10 | Cc1cc2nc(n1)NCC(C)COCC1(C)CCN(CC1)c1cc(NS(=O)(=O)CCO)ccc1C(=O)N2 (stereo not shown) [EX19]
17 | 10 to 100 | 1000 to 10000 | Cc1cc2nc(n1)N(CC(F)(F)F)CCCOCC1(C)CCN(CC1)c1cc(NS(=O)(=O)CCO)ccc1C(=O)N2 [EX26]
18 | 10 to 100 | < 10 | Cc1cc2nc(n1)N1CCO[C@H](COCC3(C(F)F)CCN(CC3)c3cc(NS(=O)(=O)CCO)ccc3C(=O)N2)C1 [EX113-A]
19 | 10 to 100 | 100 to 1000 | CN1CCOCC2(C)CCN(CC2)c2cc(NS(=O)(=O)CCO)ccc2C(=O)Nc2cccc(c2)C1=O [EX10]
20 | 10 to 100 | 100 to 1000 | Cc1cc2nc(n1)OCCOCC1(C)CCN(CC1)c1cc(NS(=O)(=O)CCO)ccc1C(=O)N2 [EX03]
